Measurements from patent publication US9491933B2, “Infected nail of animal infected with fungus” (POLA PHARMA, INC., priority 2007, dated 2016).

Experiment: Rabbit immunity suppression: body weight change after administration of the immunosuppressive agent
Assay type: in vivo, Japanese white rabbit
Conditions: 4 mg/kg per dose to femoral muscle once a week; 2 weeks after starting the administration; average of 15 rabbits
Procedure: 14 week old Japanese white rabbits (Kbl: JW, Kitayama Labes Co., Ltd.) were quarantined and acclimatized for 1 week. After acclimatization, a long-acting methylprednisolone acetate preparation (Depo Melcort, Fuji Pharma Co., Ltd.) was administered as an immunosuppressive agent to femoral muscle a total of three times, with 4 mg/kg as the amount administered in one dose, at intervals of once a week. […] At a point 2 weeks after starting the administration, at which the average of the weights of a total of 15 rabbits had decreased by about 6% from the weight prior to administration, inoculation with a fungal liquid was carried out.

In the case of CC(=O)OCC(=O)[C@@]1(O)CC[C@H]2[C@@H]3C[C@H](C)C4=CC(=O)C=C[C@]4(C)[C@H]3[C@@H](O)C[C@@]21C [methylprednisolone acetate], the “decrease of average weight from the weight prior to administration (indicator of immunocompromise)” value is reported as “about 6%”.
